Measurements: patent US20150056166A1, “FLAVONE DERIVATIVES AND THEIR USE” (Twincore GmbH, priority 2012, published 2015)

Key:
[1] = tested on: cell culture derived particles from genotype 1a, 1b, 2b, 3a, 4a, 5a and 6a; assay: Genotype panel of chimeric reporter viruses, summary statement; format: cell-based, HCV; conditions: Hepatitis C virus
[2] = tested on: JcR-2a virus; assay: microbe, parasite or virus in culture; format: cell-based, HCV
Procedure: Combined effects of CsA on BJ486K and vice versa were analysed by inoculation of Huh7-Lunet/CD81 cells with JcR-2a virus in the presence of given drugs and determination of luciferase activity 72 h later. Mean values of three independent experiments each conducted in triplicates including the standard deviations are given. Data are normalized for values determined in mock treated controls.
Huh7-Lunet/CD81 cells were infected with reporter virus particles essentially as described recently (Koutsoudakis et al., J. Virol. 2006; 80: 5308-5320). Briefly, for inoculation with firefly luciferase reporter virus particles (Luc-Jc1) and Renilla reporter viruses (JcR-2a (Reiss et al., Cell host & microbe 2011; 9: 32-45) and GT1-6, see plasmids below), Huh7-Lunet/CD81 cells were seeded at a density of 6×10 e4 cells per well of a 12-well plate or 6.6×10 e3 cells per well of a 96-well plate 24 h prior to inoculation. If not stated otherwise, the virus particles were pretreated with the inhibitors for 1 h at 37° C. Cells were inoculated for 4 h at 37° C., viral inoculum was replaced by fresh culture fluid and infection was quantified 48 h or 72 h after virus inoculation using luciferase assays. To this end, cells were washed once with PBS and in the case of the Luc-Jc1 infected cells, lysed directly on the plate with 350 μl of cold lysis buffer (0.1% Triton-X100, 25 mM glycylglycine, 15 mM MgSO4, 4 mM EGTA and 1 mM dithiothreitol, pH 7.8) and after addition of the luciferase solution (200 μM luciferin, 25 mM glycylglycine, pH8) measured for 20 s in a luminometer (Lumat LB9507, Berthold, Freiburg, Germany). Cells infected with the renilla reporter virus were lysed in 200 μl lysis buffer (Promega, Mannheim, Germany) and after addition of the luciferase substrate (1 μM of coelenterazin (P. J. K., Kleinblittersdorf, Germany) in PBS) measured for 1 s in a luminometer (Lumat LB9507, Berthold, Freiburg, Germany). The indicated IC50 values were determined by using Sigma Plot software (Systat Inc; San Jose; Calif.). […]

[3] = tested on: Jc1; assay: HCV virus assembly/release, intra- and extracellular core protein after Jc1 RNA transfection; format: cell-based; conditions: up to a dose of 20 μM, 48 h after transfection
Procedure: (A) Huh7-Lunet/CD81 cells were transfected with the subgenomic luciferase replicon depicted at the top. Drugs were added 4 h post transfection and the level of HCV RNA translation and RNA replication was quantified by luciferase assays 72 h post transfection. Mean values of three independent experiments each with quadruplicate measurements including the standard deviation are shown. (B) Cells were transfected with the Jc1 chimera depicted above and drugs were added 4 h later. HCV virus release in the presence or absence of given compounds was determined by quantification of intracellular and extracellular core protein levels using a core-specific ELISA. Mean values of three independent experiments with single measurements including the error range are given. (C) Huh7-Lunet/CD81 cells were inoculated with Luc-Jc1 reporter viruses prepared in the absence of drugs. BJ486K was added to the cells only prior to inoculation (black), only during inoculation (grey) or selectively directly after inoculation (white) as schematically depicted at the top. Infectivity was determined 72 h later by luciferase assays and compared to DMSO-treated controls. Mean values of three independent experiments each with quadruplicate measurements including the standard deviation are shown.
Huh7-Lunet/CD81 cells were transfected with Jc1 RNA and seeded on a 6-well plate. Compounds were added 4 h later. At 48 h after transfection, cell culture supernatant was harvested and used for measuring the extracellular core amount. Cells were washed once with PBS, scraped and centrifuged for 5 min at 1000×g. Cell pellets were resuspended in 500 μl fresh culture fluid and subjected to three cycles of freeze and thaw using liquid nitrogen and a 37° C. thermo block. Samples were than centrifuged at 10,000×g for 10 min to remove cell debris and the core amount was measured (intracellular core protein) using the […] […]
To determine whether BJ486K affects virus assembly or release we transfected Huh7-Lunet/CD81 cells with Jc1 RNA and quantified intra- and extracellular levels of core protein 48 h after transfection (FIG. 2B).

[4] = tested on: FF-Jc1 reporter virus; assay: HCV cell entry, FF-Jc1 reporter virus in Huh-7.5 cells (FIG. 9); format: cell-based; conditions: Hepatitis C virus, Huh7.5
Procedure: FIG. 9: Comparison of flavones 13, 14 and 15. Huh-7.5 cells were seeded in 12-well plates and infected for 4 h with FF-Jc1 reporter virus +/−inhibitor (ranging from 0-100 μM final concentration). 72 h after infection, the cells were lysed and the reporter activity measured. The mean values of 6 measurements are shown in the graph. Fluorine analogues of flavone 13, flavones 14 (BJ751/1) and 15 (BJ755-3 I), inhibit HCV cell entry with 8-10-fold increased effects compared to those of the flavone 13.

[5] = tested on: Jc1; assay: Infection of DMSO-differentiated Huh7-Lunet/CD81 cells with Jc1, limiting dilution assay; format: cell-based, HCV; conditions: virus production monitored for 12 days
Source text: Next, we investigated if combination of CsA, an inhibitor of HCV RNA-replication in vitro and in vivo and also an immunosuppressive drug used in the HCV post-transplant setting, with BJ486K would increase antiviral potency. To this end, we challenged Huh7-Lunet/CD81 cells differentiated by DMSO-treatment with the highly infectious Jc1 chimera in the presence of CsA, BJ486K or a combination of both drugs (FIG. 5). […] To obtain a more quantitative measure for the combined antiviral effect of BJ486K and CsA, we inoculated nave Huh7-Lunet/CD81 cells with JcR-2a virus together with varying doses of both drugs (FIG. 6A).

Compound: COc1ccc(-c2cc(=O)c3c(O)c(O)c(OC)cc3o2)cc1 [BJ486K, 5,6-Dihydroxy-7-methoxy-2-(4-methoxy-phenyl)-chromen-4-one]
- IC50 [1]: < 4.2 µM
- decrease of the IC50 of BJ486K ([2]; 100 ng/mL of CsA): ca. 3 fold
- IC90 ([2]; Hepatitis C virus, Huh-7, 72 h): 4.37 µM
- IC50 ([2]; Hepatitis C virus, Huh-7, read-out: IC50 of BJ486K): ~400 nM
- intracellular and extracellular core protein levels [3]: reduced neither intracellular nor extracellular core protein levels
- EC50 [4]: ~2000 nM
- effect on infection of differentiated cells, in words [5]: reduced infection almost down to background levels
